Where a name gives a salt, the structure may show the parent alone.
How the values were obtained:
[1] = Ocular bioavailability following intravenous administration (Example 2); type: in vivo, New Zealand White rabbit; conditions: rabbit
Text: This study was designed to model the ocular bioavailability of mecamylamine when administered systemically. Rabbit eyes are the preferred model for in vivo modeling of ocular drugs, however, the rabbit is not the subject of choice for modeling oral bioavailability. However, systemic administration does emulate orally administered mecamylamine to a reasonable approximation since mecamylamine has rapid absorption and high oral bioavailability. Therefore, intravenous injection was used to model ocular bioavailability of mecamylamine administered systemically, in order to determine the deposition of mecamylamine to the plasma, vitreous and posterior tissues (retina/choroid) of the eye from the blood.
The study comprised 2 groups (each N=6, 12 rabbits total) of male NZW (New Zealand White) rabbits weighing approximately 2.5-3 kg and obtained from Kralek Farms (Turlock, Calif.). Mecamylamine solution, prepared as described in Example 1, at a dose of 15 mg/kg was delivered via i.v. infusion as either a short infusion (1 hr) or slow infusion (6 hr) in rabbits sedated by ketamine/xylazine, with the slow infusion intended to model controlled systemic release of the mecamylamine.
For both groups, samples of the vitreous(≧0.1 ml) and plasma were withdrawn at 6 time points: pre-dose, 30 min, 1, 2, 4, and 6 hr. At 6 hours, all animals were sacrificed and vitreous and retinal tissues were collected. The total amount of mecamylamine administered during each infusion was the same, based on the weight of the individual rabbit.
The concentrations of mecamylamine present in the various samples were analyzed as described in Example 6, below.

[2] = tested on: eyes of New Zealand White rabbits; experiment: Pupil diameter, pupillary response and mortality observations after topical ocular instillation in rabbits (Example 10); conditions: rabbit, in vivo
Experimental: The objective of this study was to evaluate the ocular pharmacokinetics of a 2% Mecamylamine in a GELRITE solution up to 6 hours following topical instillation into the eyes of New Zealand White rabbits. Nine New Zealand White female rabbits of minimum age of 9 weeks and weight 2-3 kg were obtained from The Rabbit Source (Ramona, Calif.) were used in the study.
On day 1, 2 drops of 50 μL of mecamylamine or vehicle were administered topically into the appropriate eye(s) of each animal as described in Table 13. The time of each dose administration was recorded.

[3] = in vivo; conditions: rabbit, in vivo
Experimental: As used herein, the term “topically administered to a rabbit eye,” and cognates thereof, refers to the administration of a particular mecamylamine formulation, including formulations of pharmaceutically acceptable salts of mecamylamine, by applying 100 μL of the mecamylamine formulation to the cornea of each eye (2 drops of 50 μL each), wherein at the time of application the bottom eyelid is separated from the surface of the eye to make a pocket to ensure the entire dose is retained in contact with the eye. When the concentration of mecamylamine in plasma and in the retinal/choroidal tissue is to be measured in connection with the calculation of the ratio of the mecamylamine concentration in the retina/choroid versus the concentration of mecamylamine in plasma, the concentration of each is determined 1 hour after application of the formulation. The amount of mecamylamine present in plasma and the retina/choroid is determined by LC/MS/MS using internal standards of dextromethorphan and diphenhydramine and a standard of known concentration of mecamylamine. An exemplary method of administration of the topical formulation of mecamylamine is provided in Example 5. An exemplary LC/MS/MS method for determining the ratios described herein is given in detail in Example 6. When the mean maximum concentration of mecamylamine in plasma is to be determined, the concentration is again determined as described above and in Example 6. The term “mean maximum concentration of mecamylamine,” and its cognates, as used herein refers to the mean maximum concentration of mecamylamine measured in plasma when monitored over a 6 hour time period after administration of the formulation. When the mean total concentration of mecamylamine in plasma is to be determined, the concentration is again determined as described above and in Example 6. The term “total concentration of mecamylamine in plasma measured as the area under the curve,” (AUC) and cognates thereof, refers to summation of the areas under plot of the drug plasma versus time using a simple trapezoidal method with drug plasma time points taken to include 1, 3 and 6 hours after topical administration. Determination of AUC for corneal tissue, retinal/choroid tissue and aqueous humor is determined similarly. When the concentration of mecamylamine in plasma and in the corneal tissue is to be measured in connection with the calculation of the ratio of the mecamylamine concentration in the cornea (or aqueous humor) versus the concentration of mecamylamine in plasma, the concentration of each is determined 1 hour after application of 50 μl of the formulation. The amount of mecamylamine present in plasma and the cornea (or aqueous humor) is determined by LC/MS/MS using internal standards of dextromethorphan and diphenhydramine and a standard of known concentration of mecamylamine. An exemplary method of administration of the topical formulation of mecamylamine is provided in Example 5. An exemplary LC/MS/MS method for determining the ratios described herein is given in detail in Example 6.
A single dose of a polymer-free solution, gellan gum formulation and hypromellose formulation containing 3% mecamylamine hydrochloride, was instilled in the eyes of rabbits (Dutch-belted male rabbits (Convance, Denver, Pa.) minimum age 2 months and with weights of 1.6 to 1.8 kg). Two animals were euthanized 30 minutes, 1 hour or 3 hours after dosing.
Sample of blood and ocular tissue (obtained as described in previous examples) were analyzed for mecamylamine concentration using an LC MS/MS method up to 3 hours after dosing.
The area-under-the-curve (AUC) was calculated using a trapezoidal rule on a population pharmacokinetic basis (see Table 9).

[4] = tested on: endothelial nAChRs; conditions: in vitro; endothelial cells; cited from earlier work

Compound: CNC1(C)C2CCC(C2)C1(C)C (stereo not shown) [mecamylamine hydrochloride]
- mean maximum concentration of mecamylamine in plasma ([1]; long i.v. infusion (FIG. 2)): greater than 500 ng/mL
- mean maximum concentration of mecamylamine in plasma ([1]; short i.v. administration (FIG. 1)): > 1500 ng/mL
- pupil diameter and pupil diameter response to light (mydriasis) [2]: did not result in significant changes in pupil diameter or pupil diameter response to light

Compound: HPMC
- Aqueous Humor AUC [3]: 7,355 ng/mL*hr
- Cornea AUC [3]: 114000 ng·h/g
- Plasma AUC [3]: 61 ng·h/mL
- Ratio Aqu H:plasma (AUC) [3]: 120
- Ratio Cornea:Plasma (AUC) [3]: 1,868:1
- Ratio Retina/Choroid:Plasma (AUC) [3]: 291:1
- Retina/Choroid AUC [3]: 17800 ng·h/g
- Mecamylamine AUC, Anterior sclera ([3]; topical or ocular): 32790 ng·h/g
- Mecamylamine AUC, Aqueous humor ([3]; topical or ocular): 7355 ng·h/mL
- Mecamylamine AUC, Conjunctiva ([3]; topical or ocular): 114398 ng·h/g
- Mecamylamine AUC, Cornea ([3]; topical or ocular): 113938 ng·h/g
- Mecamylamine AUC, Extraocular muscle ([3]; topical or ocular): 31236 ng·h/g
- Mecamylamine AUC, Iris-ciliary body ([3]; topical or ocular): 114813 ng·h/g
- Mecamylamine AUC, Lens ([3]; topical or ocular): 1064 ng·h/g
- Mecamylamine AUC, Optic Nerve ([3]; topical or ocular): 11515 ng·h/g
- Mecamylamine AUC, Posterior sclera ([3]; topical or ocular): 23638 ng·h/g
- Mecamylamine AUC, Retina/Choroid ([3]; topical or ocular): 17804 ng·h/g
- Mecamylamine AUC, Vitreous humor ([3]; topical or ocular): 335 ng·h/mL

Compound: CN1CCCC1c1cccnc1 (stereo not shown) [nicotine]
- concentrations at which the maximal effect of nicotine occurs [4]: 10 to 100 nM

Source: patent publication US20070167526A1, “Topical mecamylamine formulations for ocular administration and uses thereof” (priority 2005, published 2007)
